From patent US6914045B2, “Glycopeptide antibiotics” (Wyeth Holdings Corporation, priority 2001, dated 2005)

How the values were obtained:
[1] = anatomic pathology (histopathology of heart and kidney) in mice; assay type: in vivo; details: CD-1 mice, 20 mg/kg intravenously daily for 9 days, necropsy day 10, microscopic histopathology
Procedure: Samples of tissues from necropsied mice were formalin-fixed, paraffin-embedded, sectioned, stained with hematoxylin and eosin, and examined microscopically. Histopathologic findings were recorded. These findings were subjectively graded on a scale corresponding to slight, mild, moderate, marked and severe as compared to untreated controls.

[2] = test system: Staphylococcus aureus-SMITH (GC 4543); assay: acute lethal infection in mice; assay type: in vivo; details: acute lethal infection, female CD-1 mice, intraperitoneal challenge, intravenous 30 min. after infection, 7 day survival
Summary of the method: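 Intraperitoneal challenge of female CD-1 mice with a bacterial dose lethal to untreated animals within 24-48 hr; single iv treatment 30 min later, 5 mice per dose level. Survival is scored at day 7 and pooled from three experiments to give the median effective dose.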

[3] = test system: Escherichia coli; assay: in vitro antibacterial evaluation, MIC by broth dilution; assay type: cell-based; details: 18 hours at 35° C.
[4] = test system: Streptococcus sp.; assay: as above; assay type: cell-based; details: broth dilution, 18 hours at 35° C.
Summary of the method: (§1)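 Step 1: dilute antibiotic across 64-0.06 μg/mL in Muller-Hinton II […]. Step 2: inoculate at 5×10^5 CFU/mL.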

[5] = test system: Enterococcus sp.; assay: as above; assay type: cell-based; details: broth dilution, 18 hours at 35° C.
Summary of the method: as §1

[6] = test system: Staphylococcus sp.; assay: as above; assay type: cell-based; details: broth dilution, 18 hours at 35° C.; for MIC Staphylococcus aureus (ATCC 29213): strain ATCC 29213; for MIC Staphylococcus aureus (GC 1131): strain GC 1131; for MIC Staphylococcus aureus (GC 3051): strain GC 3051; for MIC Staphylococcus aureus (GC 3053): strain GC 3053; for MIC Staphylococcus aureus (GC 4541): strain GC 4541; for MIC Staphylococcus aureus (GC 4542): strain GC 4542; for MIC Staphylococcus aureus-SMITH (GC 4543): strain GC 4543; for MIC Staphylococcus aureus (GC 4544): strain GC 4544; for MIC Staphylococcus aureus (GC 4545): strain GC 4545; for MIC Staphylococcus haemolyticus (GC 4546): strain GC 4546; for MIC Coagulase Negative Staphylococcus (GC 4547): strain GC 4547; for MIC Coagulase Negative Staphylococcus (GC 4548): strain GC 4548; for MIC Coagulase Negative Staphylococcus (GC 4549): strain GC 4549; for MIC Coagulase Negative Staphylococcus (GC 4551): strain GC 4551
Summary of the method: as §1

[7] = inoculum 5×10^5 CFU/mL, strain ATCC 6301
[8] = inoculum 5×10^5 CFU/mL, strain GC 1894
[9] = inoculum 5×10^5 CFU/mL, strain GC 4563
[10] = inoculum 5×10^5 CFU/mL, strain GC 4564
[11] = inoculum 5×10^5 CFU/mL, strain GC 4565
[12] = inoculum 5×10^5 CFU/mL, strain ATCC 29212
[13] = inoculum 5×10^5 CFU/mL, strain GC 2242
[14] = inoculum 5×10^5 CFU/mL, strain GC 2243
[15] = inoculum 5×10^5 CFU/mL, strain GC 2691
[16] = inoculum 5×10^5 CFU/mL, strain GC 3059
[17] = inoculum 5×10^5 CFU/mL, strain GC 4552
[18] = inoculum 5×10^5 CFU/mL, strain GC 4553
[19] = inoculum 5×10^5 CFU/mL, strain GC 4554
[20] = inoculum 5×10^5 CFU/mL, strain GC 4556
[21] = inoculum 5×10^5 CFU/mL, strain GC 4557
[22] = inoculum 5×10^5 CFU/mL, strain GC 4558
[23] = inoculum 5×10^5 CFU/mL, strain GC 6189

CC(c1ccccc1)C1NC(=O)CNC(=O)C(CO)NC(=O)C(CC2CNC(=N)N2C2OC(CO)C(O)C(O)C2O)NC(=O)C(CC2CNC(=N)N2)NC(=O)C(Cc2ccc(OC3OC(CO)C(OC4OC5COC6(OC5C(O)C4O)C4CC5CC(C4)CC6C5)C(O)C3O)cc2)NC1=O (stereo not drawn) [Example 219, Cyclo[3-(2-iminoimidazolidin-4-yl)alanyl-3-(3-hexopyranosyl-2-iminoimidazolidin-4-yl)-alanylserylglycyl-β-methylphenylalanyl-O-[4-O-[4,6-O-(2-adamantylidene)hexopyranosyl]-hexopyranosyl]tyrosyl]]
0.5 mg/L: MIC Streptococcus pneumoniae (ATCC 6301) [4] | MIC Streptococcus pneumoniae (ATCC 6301) [4, 7]
16 mg/L: MIC Enterococcus faecalis (ATCC 29212) [5] | MIC Enterococcus faecalis (GC 3059) [5] | MIC Enterococcus faecalis (ATCC 29212) [5, 12] | MIC Enterococcus faecalis (GC 3059) [5, 16]
64 mg/L: MIC Escherichia coli (ATCC 25922) [3] | MIC Escherichia coli (GC 4559) [3]
4 mg/L: MIC Escherichia coli (GC 4560) [3] | MIC Enterococcus avium (GC 4558) [5] | MIC Enterococcus faecium (GC 4557) [5] | MIC Enterococcus faecium (GC 4557) [5, 21] | MIC Enterococcus avium (GC 4558) [5, 22] | MIC Staphylococcus aureus (ATCC 29213) [6] | MIC Staphylococcus aureus (GC 1131) [6] | MIC Coagulase Negative Staphylococcus (GC 4551) [6]
+++: Anatomical Pathology (Day 10), Kidney [1]
2 mg/L: MIC Streptococcus agalactiae (GC 4564) [4] | MIC Streptococcus pneumoniae (GC 4565) [4] | MIC Streptococcus pyogenes (GC 4563) [4] | MIC Streptococcus pyogenes (GC 4563) [4, 9] | MIC Streptococcus agalactiae (GC 4564) [4, 10] | MIC Streptococcus pneumoniae (GC 4565) [4, 11] | MIC Staphylococcus aureus (GC 3051) [6] | MIC Staphylococcus aureus (GC 3053) [6] | MIC Staphylococcus aureus (GC 4541) [6] | MIC Staphylococcus aureus (GC 4542) [6] | MIC Staphylococcus aureus-SMITH (GC 4543) [6] | MIC Staphylococcus aureus (GC 4545) [6] | MIC Staphylococcus haemolyticus (GC 4546) [6] | MIC Coagulase Negative Staphylococcus (GC 4547) [6] | MIC Coagulase Negative Staphylococcus (GC 4548) [6] | MIC Coagulase Negative Staphylococcus (GC 4549) [6]
0.5 mg/kg: median effective dose (ED50), Staphylococcus aureus-SMITH (GC 4543) [2]
0: Anatomical Pathology (Day 10), Heart [1]
8 mg/L: MIC Enterococcus faecalis (GC 2242) [5] | MIC Enterococcus faecalis (GC 2691) [5] | MIC Enterococcus faecalis (GC 4552) [5] | MIC Enterococcus faecalis (GC 4553) [5] | MIC Enterococcus faecalis (GC 4554) [5] | MIC Enterococcus faecalis (GC 6189) [5] | MIC Enterococcus faecium (GC 2243) [5] | MIC Enterococcus faecium (GC 4556) [5] | MIC Enterococcus faecalis (GC 2242) [5, 13] | MIC Enterococcus faecium (GC 2243) [5, 14] | MIC Enterococcus faecalis (GC 2691) [5, 15] | MIC Enterococcus faecalis (GC 4552) [5, 17] | MIC Enterococcus faecalis (GC 4553) [5, 18] | MIC Enterococcus faecalis (GC 4554) [5, 19] | MIC Enterococcus faecium (GC 4556) [5, 20] | MIC Enterococcus faecalis (GC 6189) [5, 23] | MIC Staphylococcus aureus (GC 4544) [6]
1 mg/L: MIC Streptococcus pneumoniae (GC 1894) [4] | MIC Streptococcus pneumoniae (GC 1894) [4, 8] | MIC Coagulase Negative Staphylococcus (GC 6257) ([6]; strain GC 6257)

N=C1NCC(C(O)C2NC(=O)C(Cc3ccc(OC4OC(CO)C(OC5OC6COC7(OC6C(O)C5O)C5CC6CC(C5)CC7C6)C(O)C4O)cc3)NC(=O)C(Cc3ccccc3)NC(=O)CNC(=O)C(CO)NC(=O)C(C(O)C3CNC(=N)N3C3OC(CO)C(O)C(O)C3O)NC2=O)N1 (stereo not shown) [Example 220]
16 mg/L: MIC Escherichia coli (GC 4559) [3]
+++: Anatomical Pathology (Day 10), Kidney [1]
0.19 mg/kg: median effective dose (ED50), Staphylococcus aureus-SMITH (GC 4543) [2]
2 mg/L: MIC Enterococcus avium (GC 4558) [5] | MIC Enterococcus faecalis (ATCC 29212) [5] | MIC Enterococcus faecalis (GC 2691) [5] | MIC Enterococcus faecalis (GC 3059) [5] | MIC Enterococcus faecalis (GC 4552) [5] | MIC Enterococcus faecalis (GC 4554) [5] | MIC Enterococcus faecalis (ATCC 29212) [5, 12] | MIC Enterococcus faecalis (GC 2691) [5, 15] | MIC Enterococcus faecalis (GC 3059) [5, 16] | MIC Enterococcus faecalis (GC 4552) [5, 17] | MIC Enterococcus faecalis (GC 4554) [5, 19] | MIC Enterococcus avium (GC 4558) [5, 22]
0: Anatomical Pathology (Day 10), Heart [1]
<0.06 mg/L: MIC Streptococcus agalactiae (GC 4564) [4] | MIC Streptococcus pneumoniae (ATCC 6301) [4] | MIC Streptococcus pneumoniae (GC 1894) [4] | MIC Streptococcus pneumoniae (GC 4565) [4] | MIC Streptococcus pyogenes (GC 4563) [4] | MIC Streptococcus pneumoniae (ATCC 6301) [4, 7] | MIC Streptococcus pneumoniae (GC 1894) [4, 8] | MIC Streptococcus pyogenes (GC 4563) [4, 9] | MIC Streptococcus agalactiae (GC 4564) [4, 10] | MIC Streptococcus pneumoniae (GC 4565) [4, 11]
32 mg/L: MIC Escherichia coli (ATCC 25922) [3]
1 mg/L: MIC Enterococcus faecalis (GC 2242) [5] | MIC Enterococcus faecalis (GC 4553) [5] | MIC Enterococcus faecalis (GC 6189) [5] | MIC Enterococcus faecium (GC 2243) [5] | MIC Enterococcus faecium (GC 4556) [5] | MIC Enterococcus faecium (GC 4557) [5] | MIC Enterococcus faecalis (GC 2242) [5, 13] | MIC Enterococcus faecium (GC 2243) [5, 14] | MIC Enterococcus faecalis (GC 4553) [5, 18] | MIC Enterococcus faecium (GC 4556) [5, 20] | MIC Enterococcus faecium (GC 4557) [5, 21] | MIC Enterococcus faecalis (GC 6189) [5, 23] | MIC Staphylococcus aureus (GC 1131) [6] | MIC Staphylococcus aureus (GC 3051) [6] | MIC Staphylococcus aureus (GC 3053) [6] | MIC Staphylococcus aureus (GC 4541) [6] | MIC Staphylococcus aureus-SMITH (GC 4543) [6] | MIC Staphylococcus aureus (GC 4544) [6]
0.5 mg/L: MIC Escherichia coli (GC 4560) [3] | MIC Staphylococcus aureus (ATCC 29213) [6] | MIC Staphylococcus aureus (GC 4542) [6] | MIC Staphylococcus aureus (GC 4545) [6] | MIC Coagulase Negative Staphylococcus (GC 4547) [6] | MIC Coagulase Negative Staphylococcus (GC 4551) [6]
0.25 mg/L: MIC Staphylococcus haemolyticus (GC 4546) [6] | MIC Coagulase Negative Staphylococcus (GC 4548) [6] | MIC Coagulase Negative Staphylococcus (GC 4549) [6]
